From the supplement of paper PMC13207355
Structures can show the parent of a compound that is named as a salt.

Tests used:
Conditions in all cases: exposure time: 72 h
E34 [1] = patient-derived glioblastoma stem cells of proneural subtype; test: phenotypic distance (Euclidean, principal components) from DMSO controls (arbitrary units); higher = stronger morphological change
E31 [2] = patient-derived glioblastoma stem cells of proneural subtype; test: as above
E21 [3] = patient-derived glioblastoma stem cells of mesenchymal subtype; test: as above
E28 [4] = patient-derived glioblastoma stem cells of classical subtype; test: as above
E57 [5] = patient-derived glioblastoma stem cells of mesenchymal subtype; test: as above
E13 [6] = patient-derived glioblastoma stem cells of classical subtype; test: as above
FT3469 [7] = normal neural stem cell line; test: as above
E34 [8] = test: surviving fraction (nuclei count normalised to DMSO); higher = more cells surviving (less toxic)
E31 [9] = test: as above
E21 [10] = test: as above
E28 [11] = test: as above
E57 [12] = test: as above
E13 [13] = test: as above
FT3469 [14] = test: as above
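Wherever phenotypic distance (Euclidean, principal components) from DMSO controls is given: cell Painting imaging in 384-well plates, CellProfiler features reduced to at least 20 principal components, Euclidean distance versus same-plate DMSO vehicle wells (0.1% v/v), median over six images per well.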
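Wherever surviving fraction (nuclei count normalised to DMSO) is given: nuclei counted by high-content imaging of Hoechst-stained cells in laminin-coated 384-well plates, relative to 0.1% DMSO vehicle wells, with staurosporine as cell-death control.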

CCCCC(CC)CNC(=N)NC(=N)NCCCCCCNC(=N)NC(=N)NCC(CC)CCCC (stereo not drawn) [Alexidine dihydrochloride]
Conditions | phenotypic distance | surviving fraction
E13 [6], 4.1 nM | 0.582 | –
E13 [6], 12.3 nM | 0.387 | –
E13 [6], 37 nM | 0.788 | –
E13 [6], 111.1 nM | 0.757 | –
E13 [6], 333.3 nM | 1.76 | –
E13 [6], 1000 nM | 1.39 | –
E13 [6], 3000 nM | 10.1 | –
E13 [13], 4.1 nM | – | 0.884
E13 [13], 12.3 nM | – | 0.905
E13 [13], 37 nM | – | 0.978
E13 [13], 111.1 nM | – | 0.877
E13 [13], 333.3 nM | – | 0.607
E13 [13], 1000 nM | – | 0.602
E13 [13], 3000 nM | – | 0.0804
E21 [3], 4.1 nM | 0.597 | –
E21 [3], 12.3 nM | 1.12 | –
E21 [3], 37 nM | 0.958 | –
E21 [3], 111.1 nM | 0.651 | –
E21 [3], 333.3 nM | 0.84 | –
E21 [3], 1000 nM | 4.98 | –
E21 [3], 3000 nM | 19 | –
E21 [10], 4.1 nM | – | 0.967
E21 [10], 12.3 nM | – | 0.916
E21 [10], 37 nM | – | 0.945
E21 [10], 111.1 nM | – | 1.02
E21 [10], 333.3 nM | – | 1.07
E21 [10], 1000 nM | – | 0.368
E21 [10], 3000 nM | – | 0.00297
E28 [4], 4.1 nM | 1.07 | –
E28 [4], 12.3 nM | 0.612 | –
E28 [4], 37 nM | 0.518 | –
E28 [4], 111.1 nM | 0.461 | –
E28 [4], 333.3 nM | 1.31 | –
E28 [4], 1000 nM | 3.13 | –
E28 [4], 3000 nM | 12.9 | –
E28 [11], 4.1 nM | – | 0.911
E28 [11], 12.3 nM | – | 0.933
E28 [11], 37 nM | – | 0.847
E28 [11], 111.1 nM | – | 1.04
E28 [11], 333.3 nM | – | 0.694
E28 [11], 1000 nM | – | 0.233
E28 [11], 3000 nM | – | 0.0064
E31 [2], 4.1 nM | 0.786 | –
E31 [2], 12.3 nM | 0.686 | –
E31 [2], 37 nM | 1.01 | –
E31 [2], 111.1 nM | 0.884 | –
E31 [2], 333.3 nM | 0.669 | –
E31 [2], 1000 nM | 5.57 | –
E31 [2], 3000 nM | 11.7 | –
E31 [9], 4.1 nM | – | 0.955
E31 [9], 12.3 nM | – | 0.825
E31 [9], 37 nM | – | 1.1
E31 [9], 111.1 nM | – | 1.02
E31 [9], 333.3 nM | – | 0.871
E31 [9], 1000 nM | – | 0.125
E31 [9], 3000 nM | – | 0.013
E34 [1], 4.1 nM | 1.35 | –
E34 [1], 12.3 nM | 1.19 | –
E34 [1], 37 nM | 0.769 | –
E34 [1], 111.1 nM | 0.582 | –
E34 [1], 333.3 nM | 0.858 | –
E34 [1], 1000 nM | 4.01 | –
E34 [1], 3000 nM | 14.9 | –
E34 [8], 4.1 nM | – | 0.86
E34 [8], 12.3 nM | – | 1.11
E34 [8], 37 nM | – | 0.972
E34 [8], 111.1 nM | – | 0.991
E34 [8], 333.3 nM | – | 0.939
E34 [8], 1000 nM | – | 0.512
E34 [8], 3000 nM | – | 0.0472
E57 [5], 4.1 nM | 0.655 | –
E57 [5], 12.3 nM | 0.696 | –
E57 [5], 37 nM | 0.435 | –
E57 [5], 111.1 nM | 0.715 | –
E57 [5], 333.3 nM | 1.53 | –
E57 [5], 1000 nM | 6.34 | –
E57 [5], 3000 nM | 10.4 | –
E57 [12], 4.1 nM | – | 1.01
E57 [12], 12.3 nM | – | 1.01
E57 [12], 37 nM | – | 0.91
E57 [12], 111.1 nM | – | 1.03
E57 [12], 333.3 nM | – | 0.828
E57 [12], 1000 nM | – | 0.252
E57 [12], 3000 nM | – | 0.00967
FT3469 [7], 4.1 nM | 1.28 | –
FT3469 [7], 12.3 nM | 1.28 | –
FT3469 [7], 37 nM | 1.13 | –
FT3469 [7], 111.1 nM | 0.545 | –
FT3469 [7], 333.3 nM | 1.44 | –
FT3469 [7], 1000 nM | 2.26 | –
FT3469 [7], 3000 nM | 11.7 | –
FT3469 [14], 4.1 nM | – | 0.76
FT3469 [14], 12.3 nM | – | 0.814
FT3469 [14], 37 nM | – | 0.863
FT3469 [14], 111.1 nM | – | 1.16
FT3469 [14], 333.3 nM | – | 0.863
FT3469 [14], 1000 nM | – | 0.504
FT3469 [14], 3000 nM | – | 0.0403
